Measured values from patent US5519024A, “Quinolonecarboxylic acid derivatives and their use” (Takeda Chemical Industries, Ltd., priority 1993, dated 1996).

Biological target: T1, GPIIb/IIIa (Homo sapiens, UniProt P05106+P08514)
T1 construct: Purification of GPIIb/IIIa from HEL cells; endogenous in cells; host or cells: HEL cells (HEL 92.1.7, ATCC TIB180); endogenous complex solubilized with Triton X-100 and purified in house
Test: Inhibitory activity against binding of GPIIb/IIIa and fibrinogen
Conditions: Table 2, read-out: GPIIb/IIIa Fibrinogen Binding Inhibitory Activity; for inhibition at 10 µM: 10^-5 M; for inhibition at 1 µM: 10^-6 M
Experimental: Test Example 1: Inhibitory activity against binding of GPIIb/IIIa and fibrinogen
(1) Cultivation of human erythroleukemia-derived cell line (hereinafter referred to as HEL cells)
HEL cells (HEl92.1.7; ATCC No. TIB180) were purchased from ATCC (Rockville, Md., U.S.A.). The medium was RPMI medium (GIBCO Laboratories, Grand Island, N..Y, U.S.A.) containing 40 mM N-2-hydroxyethylpiperazine-N'-2-ethanesulfonic acid (hereinafter referred to as HEPES) (pH 7.0), 0.2% NaHCO3, 100 μg/ml kanamycin and 10% FCS. The cells were cultured in the presence of 5% CO2 at 37° C., with the medium replaced with a fresh medium to obtain a 4- to 5-fold dilution at intervals of 3 to 4 days.
(2) Purification of GPIIb/IIIa from HEL cells
GPIIb/IIIa was purified by a modification of the method of L. A. Fitzgerald et al. [J. Biol. Chem., 262, 3936 (1987)] as follows: All purification was conducted at room temperature, unless otherwise stated. At 7 days of cultivation, cells were collected from the HEL cell culture broth (cell suspension) by centrifugation (1,000 ×g, 10 minutes, 4° C.). After washing with 20 mM Tris-HCl (pH 7.5) containing 1 mM EDTA and 150 mM NaCl, the cells were suspended in a solubilizing buffer (20 mM Tris-HCl, 150 mM NaCl, 1% Triton X-100, 1 mM MgCl2, 1 mM CaCl2, 0.1 mM (p-amidinophenyl)methanesulfonyl fluoride (hereinafter referred to as APMSF), 10 nM leupeptin, 0.02% NaN3, pH 7.4), followed by gentle stirring at 4° C. for 30 minutes, to solubilize the GPIIb/IIIa. The suspension was centrifuged (100,000 ×g, 1 hour) at 4° C., and the cell debris removed, to yield a cell extract. The cell extract was passed through a Heparin-Sepharose CL-6B column (Pharmacia LKB) and a DEAE-Toyopearl 650M column (Tosoh), both previously equilibrated with a column buffer (20 mM Tris-HCl, 150 mM NaCl, 0.1% Triton X-100, 1 mM MgCl2, 1 mM CaCl2, 0.1 mM APMSF, 1 nM leupeptin, 0.05% NaN3, pH 7.4). The effluent was applied to a ConA-Sepharose column (Pharmacia LKB), previously equilibrated with the same column buffer as above, to adsorb the GPIIb/IIIa, followed by elution with the same column buffer but containing 0.5M methyl α-D-mannopyranoside. The eluted fraction was concentrated at 4° C. using an ultrafiltration apparatus (Amicon Corporation the fraction's molecular weight of 10,000), after which it was subjected to gel filtration through a Sephacryl S-300 column (Pharmacia LKB), previously equilibrated with the same column buffer, to yield a purified standard sample.
(3) Biotinization of human fibrinogen
Conducted by the method of I. F. Charo [I. F. Charo et al., J. Biol. Chem., 266, 1415 (1991)].
Human fibrinogen (Kabi Vitrum AB) was dissolved in PBS to 5 mg/ml and then dialyzed at 4° C. against 0.1M carbonate buffer (pH 8.2) containing 0.1M NaCl. After dialysis, insoluble substances were removed by centrifugation (100,000 ×g, 30 minutes), and the dialyzate was diluted to 1 mg/ml with the same buffer. To this dilution, sulfo-N-hydroxysuccinimidebiotin (Pierce Chemical Co.) was added to a final concentration of 0.2 mg/ml, followed by gentle mixing at room temperature for 30 minutes, to biotinize the fibrinogen. After completion of the reaction, the mixture was dialyzed against 0.05M Tris-HCl buffer (pH 7.4) containing 0.1M NaCl and 0.05% NaN3.
(4) Determination of inhibitory activity against fibrinogen binding
Conducted by a modification of the method of I. F. Charo [I. F. Charo et al., J. Biol. Chem., 266, 1415 (1991)] as follows: The purified GPIIb/IIIa was diluted to 1 μg/ml with buffer A (20 mM Tris-HCl, 150 mM NaCl, 1 mM CaCl2, 0.02% NaN3, pH 7.4). A 100 μl aliquot of this dilution was dispensed to a 96-well microplate (Maxisorp, produced by Nunc), and the plate kept standing at 4° C., to adsorb the GPIIb/IIIa to the microplate. Next, 150 μl of buffer B (35 mg/ml BSA, 50 mM Tris-HCl, 100 mM NaCl, 2 mM CaCl2, 0.02% NaN3, pH 7.4) was added, followed by 2 hours of blocking at 30° C. […]

T1 sequence (P08514 32-887 limits assumed): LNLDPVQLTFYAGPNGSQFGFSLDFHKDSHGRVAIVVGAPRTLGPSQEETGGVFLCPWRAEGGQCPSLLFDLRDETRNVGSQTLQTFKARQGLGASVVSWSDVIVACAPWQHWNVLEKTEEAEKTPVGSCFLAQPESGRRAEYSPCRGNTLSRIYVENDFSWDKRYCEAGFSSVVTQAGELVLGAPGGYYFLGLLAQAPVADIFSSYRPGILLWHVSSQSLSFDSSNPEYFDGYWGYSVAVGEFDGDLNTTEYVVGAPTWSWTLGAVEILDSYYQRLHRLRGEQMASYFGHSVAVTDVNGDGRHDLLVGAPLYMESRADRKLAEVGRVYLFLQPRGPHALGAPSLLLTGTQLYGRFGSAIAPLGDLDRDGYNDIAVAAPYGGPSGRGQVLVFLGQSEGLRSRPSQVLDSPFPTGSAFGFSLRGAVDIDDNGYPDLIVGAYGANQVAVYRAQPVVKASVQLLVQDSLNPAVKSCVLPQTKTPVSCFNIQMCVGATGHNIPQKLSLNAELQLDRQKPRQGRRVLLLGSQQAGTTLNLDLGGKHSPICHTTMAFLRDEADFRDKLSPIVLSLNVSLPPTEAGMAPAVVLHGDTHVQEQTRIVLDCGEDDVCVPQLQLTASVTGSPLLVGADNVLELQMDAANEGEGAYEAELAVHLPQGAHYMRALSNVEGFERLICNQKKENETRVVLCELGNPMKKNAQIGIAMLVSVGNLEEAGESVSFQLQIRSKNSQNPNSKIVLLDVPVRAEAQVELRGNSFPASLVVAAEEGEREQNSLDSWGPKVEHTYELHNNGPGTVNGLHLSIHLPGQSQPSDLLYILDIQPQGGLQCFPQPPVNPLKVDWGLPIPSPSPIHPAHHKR
T1 sequence (P08514 891-1039 limits assumed): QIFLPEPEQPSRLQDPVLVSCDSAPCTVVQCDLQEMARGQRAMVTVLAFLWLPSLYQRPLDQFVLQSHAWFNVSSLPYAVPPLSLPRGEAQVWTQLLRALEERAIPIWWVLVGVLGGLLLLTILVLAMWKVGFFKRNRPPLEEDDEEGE
T1 sequence (P05106 27-788): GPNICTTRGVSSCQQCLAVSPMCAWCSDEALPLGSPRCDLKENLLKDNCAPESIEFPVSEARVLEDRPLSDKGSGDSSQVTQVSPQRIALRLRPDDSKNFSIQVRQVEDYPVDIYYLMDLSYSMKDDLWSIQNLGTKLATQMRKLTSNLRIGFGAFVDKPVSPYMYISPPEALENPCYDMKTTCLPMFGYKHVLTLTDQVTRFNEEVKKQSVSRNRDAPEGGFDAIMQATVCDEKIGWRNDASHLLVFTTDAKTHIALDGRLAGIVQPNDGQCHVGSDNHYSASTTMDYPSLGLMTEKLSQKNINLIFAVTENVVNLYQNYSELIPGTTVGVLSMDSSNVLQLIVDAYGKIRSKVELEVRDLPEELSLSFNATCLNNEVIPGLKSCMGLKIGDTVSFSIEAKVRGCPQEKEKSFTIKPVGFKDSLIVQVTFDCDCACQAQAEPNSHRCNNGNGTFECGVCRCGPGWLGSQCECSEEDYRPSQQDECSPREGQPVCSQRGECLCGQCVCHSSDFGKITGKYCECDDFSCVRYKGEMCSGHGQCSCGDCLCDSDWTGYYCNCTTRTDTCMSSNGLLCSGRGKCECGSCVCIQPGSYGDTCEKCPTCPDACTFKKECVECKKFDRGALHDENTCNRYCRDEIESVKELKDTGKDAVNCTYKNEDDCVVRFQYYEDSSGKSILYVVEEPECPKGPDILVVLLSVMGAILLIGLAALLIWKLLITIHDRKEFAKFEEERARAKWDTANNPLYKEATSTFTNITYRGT

Compound | inhibition at 10 µM | inhibition at 1 µM
CN1CCN(c2c(F)cc3c(=O)c(C(=O)O)cn(C)c3c2F)CC1 [Compound 1] | 70.7% | 48.6%
Cn1cc(C(=O)O)c(=O)c2cc(F)c(N3Cc4ccccc4C(N)C3)c(F)c21 (stereo not shown) [Compound 2] | 72.4% | 48.4%
CCn1cc(C(=O)O)c(=O)c2cc(F)c(N3CCN(c4ccncc4)CC3)cc21 [Compound 3, 1-Ethyl-6-fluoro-7-[4-(4-pyridyl)piperazin-1-yl]-1,4-dihydro-4-oxoquinoline-3-carboxylic acid] | 82.2% | 57.1%
CCn1cc(C(=O)O)c(=O)c2cc(F)c(N3CCN(Cc4ccccn4)CC3)cc21 [Compound 4] | 70.9% | 33%
CCn1cc(C(=O)O)c(=O)c2cc(F)c(SC3CCN(C)CC3)cc21 [Compound 5] | 60.3% | 26%
CCn1cc(C(=O)O)c(=O)c2cc(F)c(N3CCN4CCCC4C3)c(F)c21 (stereo not shown) [Compound 6] | 83.3% | 39.3%
CN1CCN(c2c(F)cc3c(=O)c(C(=O)O)cn(CCF)c3c2F)CC1 [Compound 7] | 91% | 62.1%
O=C(O)c1cn(CCF)c2c(F)c(N3CCN4CCCC4C3)c(F)cc2c1=O (stereo not shown) [Compound 8] | 79.3% | 53.1%
O=C(O)c1cn(CCF)c2c(F)c(N3CCn4ccnc4C3)c(F)cc2c1=O [Compound 9] | 69.5% | 43.9%
O=C(O)c1cn(CCO)c2c(F)c(N3CCn4ccnc4C3)c(F)cc2c1=O [Compound 10, 1-(2-Hydroxyethyl)-6,8-difluoro-7-(5,6,7,8-tetrahydroimidazo[1,2-a]pyrazin-7-yl)-1,4-dihydro-4-oxoquinoline-3-carboxylic acid] | 91.3% | 72.9%
NC(=O)OCCn1cc(C(=O)O)c(=O)c2cc(F)c(N3CCNCC3)c(F)c21 [Compound 11, 1-(2-Carbamoyloxyethyl)-6,8-difluoro-7-(1-piperazinyl)1,4-dihydro-4-oxoquinoline-3-carboxylic acid] | 96.8% | 84.3%
CN(C)CCn1cc(C(=O)O)c(=O)c2cc(F)c(N3CCNCC3)cc21 [Compound 12] | 79.1% | 65.1%
CN(C)CCn1cc(C(=O)O)c(=O)c2cc(F)c(N3CCN(C)CC3)cc21 [Compound 13] | 70.5% | 54.7%
O=C(O)CCn1cc(C(=O)O)c(=O)c2cc(F)c(N3CCNCC3)c(F)c21 [Compound 14] | – | 56.1%
CC(=O)N1CC(n2cc(C(=O)O)c(=O)c3cc(F)c(N4CCN(C)CC4)c(F)c32)C1 [Compound 15] | 60.5% | 33.9%
CN1CCN(c2c(F)cc3c(=O)c(C(=O)O)cn(C4CN(C)C4)c3c2F)CC1 [Compound 16] | 60.4% | 43.2%
CN1CCN(c2c(F)cc3c(=O)c(C(=O)O)cn(C4CC4)c3c2F)CC1 [Compound 17] | 47.3% | 17.1%
O=C(O)c1cn(C2CC2)c2c(F)c(N3CCn4ccnc4C3)c(F)cc2c1=O [Compound 18] | 42.6% | 30.5%
O=C(O)c1cn(C2CC2)c2c(F)c(SC3CCNCC3)c(F)cc2c1=O [Compound 19] | 49.7% | 7%
